As usually defined, the Kd is the equilibrium constant for the complex coming apart.

Square brackets hold non-standard residues; d marks the D form. Peptide text beside a SMILES is read from it. * marks the point of attachment. Tyr(3-Cl) = N[C@@H](Cc1ccc(O)c(Cl)c1)C(=O)O; Benzoyl(3,5-Cl2) = O=C(c1cc(Cl)cc(Cl)c1)*; Lys(Et2) = CCN(CC)CCCC[C@H](N)C(=O)O; Gly(cPent) = N[C@H](C(=O)O)C1CCCC1; NH(propargyl) = C#CCN*

The source of these data is patent US20210284691A1, “CBX8 CHROMDOMAIN INHIBITORS AND THE USES THEREOF” (Purdue Research Foundation, priority 2019, published 2021).

For one data set, the target named is T1, CBX2 ChD (Homo sapiens, UniProt Q14781).
T1 construct: CBX chromodomain constructs; host or cells: E. coli BL21 CodonPlus RIL
T1 sequence (Q14781 12-70 limits assumed): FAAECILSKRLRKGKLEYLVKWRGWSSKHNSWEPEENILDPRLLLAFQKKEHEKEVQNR
Kind of data set: Direct fluorescence polarization (FP) binding assay. (In fluorescence polarisation assays a small probe gives low polarisation when free and higher when bound to something large.)

Data set [1] concerns the target T2, CBX7 binding to chromatin (Homo sapiens, UniProt O95931).
T2 construct: endogenous in cells; host or cells: Hs68 fibroblasts (A17); HEK293T (A20)
Description: ChIP-qPCR in Hs68 fibroblast cells. In kind it is cell-based. The settings on record: 100 μM, 4 h. As to the method:
ChIP: Hs68 cells were seeded at 4×10^6 in a 10 cm cell culture plates 16 hours prior to treatment. Cells were treated with 100 μM SW2-110A or DMSO for four hours. ChIP was performed as described in Connelly et al., 2018. Birefly, cells were washed with PBS and fixed on the plate with CiA Fix buffer (50 mM HEPES, pH 8.0, 1 mM EDTA, 0.5 mM ETGA, 100 mM NaCl) and 1% formaldehyde for 10 min at room temperature. Crosslinking was quenched with 0.125 M glycine for 5 min at 4° C. Cells were washed once with PBS and lifted off the plate then resuspended in CiA NP Rinse buffer 1 (50 mM HEPES pH 8.0, 140 mM NaCl, 1 mM EDTA, 10% glycerol, 0.5% NP-40, 0.25% Triton X) for 10 min. Cells were pelleted at 1200×g for 5 min at 4° C. The supernatant was removed, and the cells were resuspended in CiA NP rinse buffer 2 (10 mM Tris pH 8.0, 1 mM EDTA, 0.5 mM EGTA, 200 mM NaCl). Cells were collected by centrifugation, 1200×g for 5 min. Supernatant was removed and the cells were washed twice with shearing buffer (0.1% SDS, 1 mM EDTA, 10 mM Tris HCl, pH 8.0). Cells were resuspended in shearing buffer and sonicated for 7 min with the probe (Branson). Lysate was centrifuged at 21,000×g for 15 min to remove debris. […]
qPCR: qPCR was performed on the isolated ChIP DNA using SYBR master mix (Thermo) and run on the BioRad CFX thermo cycler. […] Enrichment was determined by percent input. […]
For orientation: In qPCR the cycle at which signal appears reflects the starting amount.

Data set [2] concerns RWPE-1 cells, HEK293T cells. Description: Viability of non-transformed / control cells. Type of data set: cell-based.

T2 sequence (O95931 whole entry): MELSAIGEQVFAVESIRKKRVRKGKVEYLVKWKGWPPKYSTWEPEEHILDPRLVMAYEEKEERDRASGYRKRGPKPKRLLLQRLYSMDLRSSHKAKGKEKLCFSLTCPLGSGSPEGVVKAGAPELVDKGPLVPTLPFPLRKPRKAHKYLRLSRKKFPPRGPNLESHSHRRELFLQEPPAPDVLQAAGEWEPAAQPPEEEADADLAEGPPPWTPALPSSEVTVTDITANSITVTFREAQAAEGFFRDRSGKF

Regarding `C#CCNC(=O)[C@H](CO)NC(=O)[C@H](CCCCN(CC)CC)NC(=O)[C@@H](NC(=O)[C@@H](NC(=O)[C@H](Cc1ccc(O)c(Cl)c1)NC(=O)c1cc(Cl)cc(Cl)c1)C1CCCC1)[C@@H](C)CC` [SW2_152F] ({Benzoyl(3,5-Cl2)}-[Tyr(3-Cl)][Gly(cPent)]I[Lys(Et2)]S-{NH(propargyl)}), the “selectivity for CBX2 over the other paralogs” value on CBX2 ChD (calculated from Kd values) is recorded as “at least 24 fold”. For the same molecule, the dissociation constant (Kd) on CBX2 ChD (read-out: Kd to CBX2) is approximately 0.08 µM. In addition, the “CBX7 binding at target loci, ChIP-qPCR” value in data set [1] was “not CBX7 binding”. Further, in data set [2], the “viability of RWPE-1 cells or HEK293T cells” value is reported as “did not affect the viability”.
